The source of these data is patent US20160317525A1 (Teva Pharmaceutical Industries, Ltd., priority 2013, published 2016).

SMILES strings stand for the structures.

Data set [1] deals with MOG induced EAE. The experiment in a line: Laquinimod combined with teriflunomide in MOG induced EAE (Example 2). It counts as in vivo, mice of the C57BL/6 strain. The following applies: Day 1-30; for GMS: group mean score; for MMS: mean maximal score; for % inhibition (GMS) / % inhibition (Incidence) / % inhibition (MMS): vs vehicle.
In data set [2] the test system is experimental autoimmune encephalomyelitis. The following applies: in mice; Merill et al., 2009; cited from earlier work.
For data set [3] the following is noted: animal studies; cited from earlier work.
The target in data set [4] is CYP2C9 (Homo sapiens, UniProt P11712). The following applies: O'Connor et al. 2006 and Warneke et al. 2009; cited from earlier work.
Chain of CYP2C9 (P11712 whole entry): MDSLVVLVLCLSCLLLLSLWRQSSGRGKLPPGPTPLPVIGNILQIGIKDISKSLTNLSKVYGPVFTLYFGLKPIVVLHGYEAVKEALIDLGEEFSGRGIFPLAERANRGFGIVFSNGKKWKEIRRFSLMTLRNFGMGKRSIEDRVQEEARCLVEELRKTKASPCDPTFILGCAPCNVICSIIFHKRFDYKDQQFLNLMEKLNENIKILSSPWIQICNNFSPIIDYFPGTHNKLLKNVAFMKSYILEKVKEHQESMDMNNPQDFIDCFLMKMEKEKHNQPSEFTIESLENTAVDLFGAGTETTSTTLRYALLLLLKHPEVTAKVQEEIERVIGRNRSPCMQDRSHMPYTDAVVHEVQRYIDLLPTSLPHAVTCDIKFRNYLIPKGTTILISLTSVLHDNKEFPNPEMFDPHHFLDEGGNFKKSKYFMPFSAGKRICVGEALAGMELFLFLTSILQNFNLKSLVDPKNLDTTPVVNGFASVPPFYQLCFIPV
For data set [5] the following is noted: 7 mg/day and 14 mg/day; O'Connor et al. 2011; cited from earlier work.

The term minimal effective dose denotes the smallest amount tested that counted as effective. `C/C(O)=C(\C#N)C(=O)Nc1ccc(C(F)(F)F)cc1` [Teriflunomide, (2Z)-2-cyano-3-hydroxy-N-[4-(trifluoromethyl)phenyl]but-2-enamide]: in data set [1] (Teriflunomide 3 mg/kg gavage), the “Duration” value is on record as 11.6 ± 2.3 days, the Incidence was 15/15, the Mortality is 0/15 and the “Onset” value was 14.0 ± 1.5 days. Also, in data set [1] (Teriflunomide 3 mg/kg gavage), the GMS came to 2.34 ± 0.65, the MMS came to 3.7 ± 0.6 and the “% inhibition (GMS)” value is 4.5%. Moreover, in data set [1] (Teriflunomide 10 mg/kg gavage), the “Duration” value is recorded as 7.5 ± 5.5 days, the Incidence was 12/15, the Mortality is 0/15 and the “Onset” value is on record as 18.3 ± 6.4 days. Besides, in data set [1] (Teriflunomide 10 mg/kg gavage), the GMS is 1.40 ± 1.18, the MMS is listed as 2.4 ± 1.7, the “% inhibition (GMS)” value is reported as 42.9% and the “% inhibition (Incidence)” value came out at 14.3%. Moreover, the “% inhibition (MMS)” value in data set [1] (Teriflunomide 10 mg/kg gavage) stood at 31.4%. Besides, the minimal effective dose in data set [2] is given as 3 mg/kg. In addition, the teratogenicity entry in data set [3] is “teratogenic”. In data set [4], the CYP2C9 inhibition result is reported as “inhibit CYP2C9”. Moreover, the “annualized relapse rate versus the placebo” value in data set [5] was “reduce the annualized relapse rate”.
As to `CCN(C(=O)c1c(O)c2c(Cl)cccc2n(C)c1=O)c1ccccc1` [Laquinimod, 5-chloro-N-ethyl-4-hydroxy-1-methyl-2-oxo-N-phenyl-1,2-dihydroquinoline-3-carboxamide], in data set [1] (Laquinimod 5 mg/kg/day gavage), the “Duration” value is given as 5.7 ± 5.1 days, the Incidence is on record as 9/15, the Mortality is on record as 0/15 and the “Onset” value was 20.5 ± 6.6 days. In data set [1] (Laquinimod 5 mg/kg/day gavage), the GMS amounted to 1.02 ± 1.01, the MMS is recorded as 1.9 ± 1.8, the “% inhibition (GMS)” value is on record as 58.4% and the “% inhibition (Incidence)” value was determined as 35.7%. The “% inhibition (MMS)” value in data set [1] (Laquinimod 5 mg/kg/day gavage) is 45.7%. For the same compound, in data set [1] (Laquinimod 25 mg/kg/day gavage), the “Duration” value amounted to 1.3 ± 3.5 days, the Incidence is 2/15, the Mortality was 0/15 and the “Onset” value is 26.3 ± 4.4 days. In data set [1] (Laquinimod 25 mg/kg/day gavage), the GMS is given as 0.18 ± 0.52, the MMS was 0.4 ± 1.1, the “% inhibition (GMS)” value is given as 92.7% and the “% inhibition (Incidence)” value turned out to be 85.7%. Besides, the “% inhibition (MMS)” value in data set [1] (Laquinimod 25 mg/kg/day gavage) is reported as 88.6%.
